Source: US11801242B2, “Compositions and methods for adjuvant cancer therapeutics” (DUKE UNIVERSITY, priority 2018, dated 2023)

What was measured:
A375 xenograft tumors = assay: Murine xenograft tumor model; format: in vivo, mouse; conditions: co-administration RE01 1.6 mg/kg with cisplatin 1 mg/kg, intratumoral, twice per week for 5 weeks
Method: NCRNU-F (nude) female, 6-8-week-old mice were divided into 4 groups (with 6 animals per group) for saline, cisplatin alone, RE01 alone, and cisplatin and RE01 combination treatments. Three million A375 cells mixed in matrigel (Corning) were injected into each flank of the 6 mice to generate 10-12 xenograft tumors per treatment group. After the tumors grew to a total tumor volume of at least 100 mm^3, the drugs (saline, cisplatin alone, RE01 alone, and cisplatin and RE01 combination) with a total volume of 100 μL per injection were injected directly into the tumor. Treatments were carried out twice per week for 5 weeks. On the dosing day, tumors were first measured with calipers, weights were recorded, and then the drugs would be injected directly into the tumors. The mice were sedated with isofluorane prior to measurements and treatments.
The drugs were formulated in 10% EtOH, 40% PEG400, and 50% saline for all the four types of treatments. Cisplatin was injected at a dose of 1 mg/kg per animal and RE01 was administered at a 1.6 mg/kg per animal. In the combination treatment of cisplatin and RE01, the same doses of 1 mg/kg and 1.6 mg/kg respectively per animal were administered. Tumor volumes were calculated by the formula (W^2×L)/2 as described previously.

HT1080 cells = assay: HPRT mutagenesis assay; format: cell-based, human; conditions: RE01 1.5 μM, cisplatin 0.5 μM
Method: For the hypoxanthine-guanine phosphoribosyl transferase (HPRT) mutagenesis assay, cells were first grown in HAT (complete media with 100 μM Hypoxanthine, 0.4 μM Aminopterin and 16 μM Thymidine) media (ThermoFisher) for 14 days to weed out any spontaneous HPRT mutants. After HAT selection, cells were exposed to cisplatin at the 0.5 μM concentration for 24 hours. Then, in fresh media, RE01 at a concentration of 1.5 μM was added to cells. After 24 hours of drug treatment, cells were trypsinized and washed with PBS. While 200-600 cells were plated in complete media in triplicates in 6-well plates to determine clonal efficiency, the rest of the cells were plated in complete media to allow the expression of the phenotype for 8 days. Then, 500,000 cells per treatment were plated in sextuplicate in 10 cm dishes in 6-TG media to allow the proliferation of mutated HPRT^− cells. Colonies were fixed (50% methanol and 10% glacial acetic acid), stained (0.02% Coomassie brilliant blue R-250 stain in methanol: acetic acid: water in a ratio of 46.5:7:46.5 (v/v/v)), and counted after 14-20 days. The HPRT mutation frequency was calculated as the ratio of the number of HPRT^− colonies in 6-TG media to the number of surviving colonies plated in complete media to determine clonal efficiency.

[1] = molecular target: T1, chimeric FLAG-tagged POL κ RIR-REV1 CTD (Mus musculus, UniProt Q920Q2); assay: In vitro DSS-crosslinking, Western blot; conditions: 100 μM RE01 NaOH salt
T1 construct: the mouse REV1 CTD (F1150-T1249); His10-GB1 (TEV site) (N, cleaved yes); made in house; host or cells: E. coli BL21 Star (DE3)
T1 sequence (Q920Q2 1150-1249): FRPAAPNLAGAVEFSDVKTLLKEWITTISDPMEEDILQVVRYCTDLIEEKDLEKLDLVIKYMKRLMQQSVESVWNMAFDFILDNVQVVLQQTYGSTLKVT
Method: Samples of the chimeric FLAG-tagged POL κ RIR-REV1 CTD in the presence of 0 μM or 100 μM RE01 were treated with increasing molar ratios of DSS (disuccinimidyl suberate) and analyzed by SDS-PAGE followed by Western blotting with anti-FLAG antibody. Monomer and crosslinked dimer bands are labeled.
More specifically, chimeric FLAG-tagged POL κ RIR-REV1 CTD in a buffer containing 25 mM HEPES (pH 7.0), 100 mM KCl, and 4 mM TCEP was mixed with either MPD (control) or RE01 NaOH salt in MPD to yield a reaction solution containing 1 μM protein, 5% MPD, and either 0 or 100 μM compound. Appropriate dilutions of DSS in DMSO were added to the reaction mixture to yield DSS-to-protein molar ratios of 0:1, 0.5:1, 1:1, 5:1, 10:1, and 50:1 and a final DMSO concentration of 5% (v/v). The reaction mixture was incubated for 30 min at room temperature and then quenched by addition of 1 M Tris (pH 8.5). The SDS-loading dye containing 4 mM TCEP and 10.8 mM iodoacetamide (to block free cysteines) was added to each reaction mixture, and the samples were loaded onto a Pre-cast 4-20% gradient SDS-PAGE gel (Bio-Rad). The gel samples were transferred to a 0.45 μm nitrocellulose membrane (Bio-Rad) for Western blotting with the anti-FLAG primary antibody M2 (Sigma-Aldrich) and the HRP-conjugated secondary antibody (LI-COR) and imaging with the LI-COR Odyssey system.

[2] = molecular target: T2, chimeric REV1 CTD protein (Mus musculus, UniProt Q920Q2); assay: Isothermal titration calorimetry; format: binding; conditions: 25° C.
T2 construct: the mouse REV1 CTD (F1150-T1249); His10-GB1 (TEV site) (N, cleaved yes); made in house; host or cells: E. coli BL21 Star (DE3)
T2 sequence (Q920Q2 1150-1249): T1 sequence (Q920Q2 1150-1249)
Method: Isothermal titration calorimetry measurements were carried out using a MicroCal VP-ITC instrument at 25° C., with the chimeric REV1 CTD protein (300 μM) in the syringe and compound (15 μM) in the cell. Compounds were initially dissolved in 50% MPD. Protein and compound samples were diluted in a buffer containing 50 mM HEPES pH 7.5, 50 mM KCl, 2 mM TCEP, 2% DMSO and 0.1% MPD. Microcal Origin 7 software was used to analyze the data.

[3] = molecular target: T3, REV1 CTD-REV7/3 interaction (Mus musculus, UniProt Q920Q2); assay: AlphaScreen assay, inhibition of the REV1 CTD-REV7/3 interaction; format: binding; conditions: fitting of the inhibition curve, inhibitor 0-25 μM, n=3
T3 construct: fused on or other part: FLAG tag at the N-terminus (after the TEV site; His10-GB1 solubility tag cleaved off); di-glycine linker between mouse POL kappa RIR K564-N577 and the REV1 CTD; Q9QUG2 (DNA polymerase kappa)
Method: The FLAG-tagged mouse POL κ-REV1 CTD was diluted in PBS containing 1 mM Tris(2-carboxyethyl)phosphine (TCEP) and 0.005% Tween-20 at a final protein concentration of 1 nM and transferred to individual wells of a 96-well, half-area, white opaque plate (PerkinElmer). Serially diluted RE01 stock solutions in 50% DMSO were added to the wells to yield final inhibitor concentrations of 0-25 μM in 2% DMSO. After 30 min incubation, anti-FLAG Donor Beads (PerkinElmer) were added to a final concentration of 20 ng/μL to individual wells and incubated for an hour. His8-tagged mouse REV7/3 was subsequently added to the reaction mixture to a final concentration of 10 nM and incubated for 30 min. Anti-His Acceptor Beads (PerkinElmer) were added to a final concentration of 20 ng/μL and incubated for an hour.
Error bars represent standard error (n=3).

T3 sequence (Q920Q2 whole entry, looked up, the tested form may be a part): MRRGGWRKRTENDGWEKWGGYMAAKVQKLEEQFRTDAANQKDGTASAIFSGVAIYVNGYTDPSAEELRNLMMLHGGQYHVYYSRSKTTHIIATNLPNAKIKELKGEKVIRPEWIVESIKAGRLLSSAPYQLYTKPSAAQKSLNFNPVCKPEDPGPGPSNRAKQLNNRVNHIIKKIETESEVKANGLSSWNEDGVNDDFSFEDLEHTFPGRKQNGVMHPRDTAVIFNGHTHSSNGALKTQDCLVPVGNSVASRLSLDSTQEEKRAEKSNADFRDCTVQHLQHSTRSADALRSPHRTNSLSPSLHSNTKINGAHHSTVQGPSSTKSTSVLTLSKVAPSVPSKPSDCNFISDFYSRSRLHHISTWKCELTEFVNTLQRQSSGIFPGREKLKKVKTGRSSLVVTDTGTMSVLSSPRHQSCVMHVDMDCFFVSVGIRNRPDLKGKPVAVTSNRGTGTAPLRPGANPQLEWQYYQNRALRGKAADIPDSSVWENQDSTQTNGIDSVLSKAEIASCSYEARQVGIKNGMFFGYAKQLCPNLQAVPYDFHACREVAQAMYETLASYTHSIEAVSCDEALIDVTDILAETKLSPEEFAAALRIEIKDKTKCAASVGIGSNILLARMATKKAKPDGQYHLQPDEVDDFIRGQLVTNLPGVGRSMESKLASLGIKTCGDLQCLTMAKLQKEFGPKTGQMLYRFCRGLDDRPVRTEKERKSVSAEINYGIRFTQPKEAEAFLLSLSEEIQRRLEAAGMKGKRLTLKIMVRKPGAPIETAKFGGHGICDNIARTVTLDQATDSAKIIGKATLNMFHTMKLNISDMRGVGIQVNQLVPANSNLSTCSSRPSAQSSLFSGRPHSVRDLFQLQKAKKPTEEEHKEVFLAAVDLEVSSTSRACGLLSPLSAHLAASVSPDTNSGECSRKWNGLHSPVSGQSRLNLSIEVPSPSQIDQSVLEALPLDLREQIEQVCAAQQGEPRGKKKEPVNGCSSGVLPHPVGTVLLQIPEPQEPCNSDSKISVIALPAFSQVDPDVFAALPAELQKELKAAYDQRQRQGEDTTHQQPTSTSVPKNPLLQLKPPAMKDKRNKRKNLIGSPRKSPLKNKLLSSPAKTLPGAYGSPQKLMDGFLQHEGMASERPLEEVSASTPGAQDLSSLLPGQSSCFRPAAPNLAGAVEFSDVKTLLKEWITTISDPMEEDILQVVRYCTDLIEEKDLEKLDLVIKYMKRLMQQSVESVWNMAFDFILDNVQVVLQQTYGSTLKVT

Q: With `CC(C)CC(=O)c1c(Nc2ccc(Cl)cc2Cl)[nH]c2c(Cl)ccc([N+](=O)[O-])c2c1=O` [RE01, 8-chloro-2-((2,4-dichlorophenyl)amino)-3-(3-methylbutanoyl)-5-nitroquinolin-4(1H)-one] as the compound, how does the “growth of xenograft human melanomas” value (A375 xenograft tumors) read?
A: strikingly suppresses

Q: What about the “frequency of spontaneous and cisplatin-induced HPRT mutations” value (HT1080 cells) of the same compound?
A: decreased

Q: And the “dimerization of the REV1 CTD in solution” value [1]?
A: promotes the dimerization

Q: And the protein-to-ligand stoichiometry [2]?
A: 2.04±0.03

Q: What about the Kd ([2]; read-out: dissociation constant (Kd)) of the same compound?
A: 420 ± 110 nM

Q: And the IC50 [3]?
A: 780 nM
